How the values were obtained:
PATC53 cells = assay: PATC53 Long Term Phenotypic Assay (14 days, crystal violet viability); assay type: cell-based; settings: 336 h
Summary of the method: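 Cells seeded at 250 per well, allowed 24 h to settle, then treated with 1:3 serial dilutions of compound for 14 days at 37 °C, 5% CO2. Viability measured by crystal violet staining, solubilised in 10% HOAc, absorbance 590 nm; IC50 from four-parameter logistic fit.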

PRMT1 = PRMT1 (Homo sapiens, UniProt Q99873); assay: PRMT1 Enzymatic Assay (LANCE TR-FRET, methylation of histone H4 at Arg3); assay type: biochemical; design: purchased SignalChem P365-380G; settings: PRMT1 1.5 nM, SAM 1 μM, biotinylated histone H4 (1-21) 25 nM; read-out: PRMT-1 IC50
PRMT1, sequence (Q99873 whole entry): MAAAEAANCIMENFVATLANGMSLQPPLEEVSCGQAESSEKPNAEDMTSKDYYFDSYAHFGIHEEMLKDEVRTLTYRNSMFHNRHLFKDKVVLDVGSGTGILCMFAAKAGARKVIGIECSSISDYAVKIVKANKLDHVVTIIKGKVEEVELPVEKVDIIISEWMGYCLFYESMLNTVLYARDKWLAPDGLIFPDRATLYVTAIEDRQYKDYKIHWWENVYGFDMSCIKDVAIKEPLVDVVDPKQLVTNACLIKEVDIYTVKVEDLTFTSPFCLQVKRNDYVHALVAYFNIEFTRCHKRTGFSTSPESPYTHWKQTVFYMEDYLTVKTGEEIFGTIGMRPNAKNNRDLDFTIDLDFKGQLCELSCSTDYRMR
Summary of the method: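 PRMT1 (1.5 nM) preincubated 15 min with compound at room temperature, then reacted 1 h with 1 μM SAM and 25 nM biotinylated histone H4 (1-21) in 50 mM Hepes pH 8, 1 mM TCEP, 0.003% Tween-20. H4R3me detected by TR-FRET (665/620 nm ratio); IC50 from four-parameter logistic fit.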

IC50 (PRMT1) [nM]	Structure (SMILES)	IC50 (PATC53 cells) [nM]
16	COCC1(COC)CCC(c2c(CN(C)CCN)nn3c2CN(C(=O)C(C)(C)C)CC3)CC1 [Example 2, 1-(2-(((2-aminoethyl)(methyl)amino)methyl)-3-(4,4-bis(methoxymethyl)cyclohexyl)-6,7-dihydropyrazolo[1,5-a]pyrazin-5(4H)-yl)-2,2-dimethylpropan-1-one]	152
35	CNCCN(C)Cc1nn2c(c1C1CCC(COC)(COC)CC1)CN(C(=O)C1CCC1)CC2 [Example 1, (3-(4,4-Bis(methoxymethyl)cyclohexyl)-2-((methyl(2-(methylamino)ethyl)amino)methyl)-6,7-dihydropyrazolo[1,5-a]pyrazin-5(4H)-yl)(cyclobutyl)methanone]	45

Reference: patent US20230416261A1, “ETHANEDIAMINE-HETEROCYCLE DERIVATIVES AS INHIBITORS OF PROTEIN ARGININE METHYLTRANSFERASES” (Board of Regents, The University of Texas System, priority 2021, published 2023)
